Experimental data published in US8481077B2, “Microbubbles and methods for oxygen delivery” (The Trustees of Columbia University in the City of New York, priority 2007, dated 2013).

Columns and labels:
[1] = Main phase transition temperature (Tm) and reduced temperature (TR) of microbubble lipids; format: physicochemical; conditions: reduced temperature T/Tm in Kelvin
Description: As used herein, the “phase transition temperature” (Tm) refers to the temperature at which lipid assemblies transition from a solid (crystalline) phase to a fluid (liquid crystalline) phase. For example, 1,2-Dipentadecanolyl-sn-Glycero-3-Phosphoeholine (C15) has a Tm of 33° C. Thus this lipid is in the solid phase at room temperature and transitions to the fluid phase when it is injected into the body.
Shell cohesion, as a function of acyl chain length, may be represented by the reduced temperature (TR), which is equal to the ratio of the ambient temperature (or “working temperature”) (T) to the main phase transition temperature (Tm) of the lipid (in Kelvin). For TR>1, the shell is in an expanded (fluid) state at the working temperature. For TR<1, the shell is in a condensed (solid) state at the working temperature. See Table 2 for a list of lipids with their corresponding main phase transition temperatures (Tm) and reduced temperatures (TR).

[2] = main phase transition temperature, solid to fluid phase; cited from earlier work
[3] = system: desaturated, venous whole blood; conditions: 0.2 mL added to 2 mL blood, one inversion
Description: In one test tube, 0.2 mL of the microbubbles were added to 2 mL of desaturated, venous whole blood.
The test tubes were inverted once, and co-oximetry and blood gas values measurements were taken using a Radiometer ABL800 X blood gas machine.

Compound | TR at 25° C. [1] | TR at 37° C. [1] | Tm (° C.) [2] | PCO2 [3] | PO2 [3] | oxygenated hemoglobin (oxyHb) [3] | pH [3]
CCCCCCCCCCCC(=O)OC[C@H](COP(=O)([O-])OCC[N+](C)(C)C)OC(=O)CCCCCCCCCCC [C12, 1,2-Dilauroyl-sn-Glycero-3-Phosphocholine] | 1.10 | 1.14 | −1 °C |  |  |  | 
CCCCCCCCCCCCCCCCCC(=O)OC[C@H](COP(=O)(O)OCCN)OC(=O)CCCCCCCCCCCCCCCCC [C18, 1,2-Distearoyl-sn-Glycero-3-Phosphoethanolamine] | 0.91 | 0.95 | 55 °C |  |  |  | 
O=O [unencapsulated oxygen, oxygen] |  |  |  | 59 mmHg | 33 mmHG | 59% | 7.33

Second part, led by results:

TR at 25° C. [1] | TR at 37° C. [1] | Compound | Tm (° C.) [2] | PCO2 [3] | PO2 [3] | oxygenated hemoglobin (oxyHb) [3] | pH [3]
1.01 | 1.05 | CCCCCCCCCCCCCC(=O)OC[C@H](COP(=O)([O-])OCC[N+](C)(C)C)OC(=O)CCCCCCCCCCCCC [C14, 1,2-Dimyristoyl-sn-Glycero-3-Phosphocholine] | 23 °C |  |  |  | 
0.97 | 1.01 | CCCCCCCCCCCCCCC(=O)OC[C@H](COP(=O)([O-])OCC[N+](C)(C)C)OC(=O)CCCCCCCCCCCCCC [C15, 1,2-Dipentadecanoyl-sn-Glycero-3-Phosphocholine] | 33 °C |  |  |  | 
0.95 | 0.99 | CCCCCCCCCCCCCCCC(=O)OC[C@H](COP(=O)([O-])OCC[N+](C)(C)C)OC(=O)CCCCCCCCCCCCCCC [C16, 1,2-Dipalmitoyl-sn-Glycero-3-Phosphocholine] | 41 °C |  |  |  | 
